Experiments:
Carbonic anhydrase 9 = Carbonic anhydrase 9 (Homo sapiens, UniProt Q16790); assay: Inhibition of recombinant human carbonic anhydrase 9 preincubated for 15 min to 72 hrs by stopped flow CO2 hydrase assay
Carbonic anhydrase 2 = Carbonic anhydrase 2 (Homo sapiens, UniProt P00918); assay: Inhibition of recombinant human carbonic anhydrase 2 preincubated for 15 min to 72 hrs by stopped flow CO2 hydrase assay
Carbonic anhydrase 1 = Carbonic anhydrase 1 (Homo sapiens, UniProt P00915); assay: Inhibition of recombinant human carbonic anhydrase 1 preincubated for 15 min to 72 hrs by stopped flow CO2 hydrase assay
Chain of Carbonic anhydrase 1 (P00915 whole entry): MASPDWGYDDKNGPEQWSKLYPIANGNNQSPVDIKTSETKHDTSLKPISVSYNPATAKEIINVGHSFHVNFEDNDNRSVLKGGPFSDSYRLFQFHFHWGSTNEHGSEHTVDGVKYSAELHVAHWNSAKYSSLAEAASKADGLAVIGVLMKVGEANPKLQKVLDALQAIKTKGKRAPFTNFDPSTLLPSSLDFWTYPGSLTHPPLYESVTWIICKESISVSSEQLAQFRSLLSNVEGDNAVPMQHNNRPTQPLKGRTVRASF

Structure (SMILES) | Ki (Carbonic anhydrase 9) [nM] | Ki (Carbonic anhydrase 2) [nM] | Ki (Carbonic anhydrase 1) [nM]
COc1ccc(-c2nn(-c3ccccc3)cc2-c2nc3ccccc3[nH]2)cc1 | 48.7 | > 40000 | > 40000
Cc1ccc(-c2nn(-c3ccccc3)cc2-c2nc3ccccc3[nH]2)cc1 | 23.3 | > 40000 | > 40000
Brc1ccc(-c2nn(-c3ccccc3)cc2-c2nc3ccccc3[nH]2)cc1 | 55.1 | > 40000 | 
COc1ccc(-c2nn(-c3ccc(S(N)(=O)=O)cc3)cc2-c2nc3ccccc3[nH]2)cc1 | 554 |  | 
Fc1ccc(-c2nn(-c3ccccc3)cc2-c2nc3ccccc3[nH]2)cc1 |  | > 40000 | > 40000
c1ccc(-c2nn(-c3ccccc3)cc2-c2nc3ccccc3[nH]2)cc1 | 55.9 | > 40000 | > 40000
Clc1ccc(-c2nn(-c3ccccc3)cc2-c2nc3ccccc3[nH]2)cc1 | 7.5 | > 40000 | > 40000
NS(=O)(=O)c1ccc(-n2cc(-c3nc4ccccc4[nH]3)c(-c3ccc(Br)cc3)n2)cc1 | 641 |  | 
NS(=O)(=O)c1ccc(-n2cc(-c3nc4ccccc4[nH]3)c(-c3ccc(F)cc3)n2)cc1 | 74.7 |  | 
NS(=O)(=O)c1ccc(-n2cc(-c3nc4ccccc4[nH]3)c(-c3ccccc3)n2)cc1 | 24.9 |  | 
NS(=O)(=O)c1ccc(-n2cc(-c3nc4ccccc4[nH]3)c(-c3ccc(Cl)cc3)n2)cc1 | 70.2 |  | 

— ChEMBL document CHEMBL3808336, “Pyrazolylbenzo[d]imidazoles as new potent and selective inhibitors of carbonic anhydrase isoforms hCA IX and XII” (Bioorg Med Chem, 2016)
